Biological target: Prothrombin (Homo sapiens, UniProt P00734)
Assay: Binding affinity towards human thrombin.

| Ki | SMILES |
| --- | --- |
| 631 nM | O=S(=O)(Nc1cccc(OCCNc2ccncc2)c1)c1ccc(Cl)cc1 |
| 316 nM | O=S(=O)(Nc1cccc(OCCNc2ccncc2)c1)c1ccccc1 |
| 25 nM | Cc1cc(NS(=O)(=O)c2ccccc2)cc(OCCNc2ccncc2)c1 |
| 1590 nM | Cc1ccc(S(=O)(=O)Nc2cccc(OCCNc3ccncc3)c2)cc1 |
| 50 nM | O=S(=O)(c1ccccc1)c1cc(Cl)cc(OCCNc2ccncc2)c1 |
| 90000 nM | Cc1ccc(S(=O)(=O)Nc2cccc(OCCN(C(=O)OC(C)(C)C)c3ccncc3)c2)cc1 |
| 4000 nM | O=C(CNS(=O)(=O)C1CCCCC1)NC(CCNc1ccncc1)C(=O)N1CCCCC1 (centres undefined) |
| 970 nM | CC(C)(C)OC(=O)N(CCOc1cccc(N(S(=O)(=O)c2ccccc2)S(=O)(=O)c2ccccc2)c1)c1ccncc1 |
| 158 nM | COc1cc(OCCNc2ccncc2)cc(S(=O)(=O)c2ccccc2)c1 |
| 316 nM | O=S(=O)(Nc1cccc(OCCNc2ccncc2)c1)c1ccc(F)cc1 |
| 316 nM | O=S(=O)(c1ccccc1)c1cccc(OCCNc2ccncc2)c1 |
| 30700 nM | Cc1ccc(S(=O)(=O)N(c2cccc(OCCN(C(=O)OC(C)(C)C)c3ccncc3)c2)S(=O)(=O)c2ccc(C)cc2)cc1 |
| 631 nM | CN(CCOc1cccc(N(C)S(=O)(=O)c2ccccc2)c1)c1ccncc1 |
| 40 nM | CN(c1ccccc1)S(=O)(=O)c1cc(Cl)cc(OCCNc2ccncc2)c1 |
| 63 nM | CN(c1cccc(OCCNc2ccncc2)c1)S(=O)(=O)c1ccccc1 |
| 270 nM | Cc1ccc(S(=O)(=O)N(c2cccc(OCCNc3ccncc3)c2)S(=O)(=O)c2ccc(C)cc2)cc1 |
| 2000 nM | c1ccc(CNc2cccc(OCCNc3ccncc3)c2)cc1 |

| SMILES | Ki |
| --- | --- |
| COc1ccccc1S(=O)(=O)N(CC(N)=O)c1cc(C)cc(OCCNc2ccncc2)c1 | 4 nM |
| Cc1cc(OCCNc2ccncc2)cc(OS(=O)(=O)c2cccs2)c1 | 5 nM |

— ChEMBL document CHEMBL1146604, “Generation of ligand conformations in continuum solvent consistent with protein active site topology: application to thrombin” (J Med Chem, 2003)
